Laboratory results published in patent US20200306333A1, “COMPOSITION FOR PREVENTING OR TREATING MUSCLE ATROPHY COMPRISING LYCII RADICIS CORTEX” (Industry-University Cooperation Foundation Hanyang …, priority 2019, published 2020).

How the values were obtained:
Type in all cases: cell-based, mouse
Details in all cases: dexamethasone 1 μM
C2C12 myotubes = test: Diameter (thickness) of C2C12 myotubes, dexamethasone-induced muscle atrophy
Experimental: C2C12 mouse myoblasts acquired from the Korean Collection for Type Cultures of the Korea Research Institute of Bioscience and Biotechnology were induced to divide for a total of 6 times (3 times×2 days). After the division was completed sufficiently, the C2C12 cells were seeded onto a 12-well plate and then divided for 2 days. As a division medium, HyClone™ DMEM/high glucose supplemented with 10% FBS (fetal bovine serum) and 1% penicillin was used.
When each well of the 12-well plate reached 90% confluency, the cells were treated with a differentiation medium (HyClone™ DMEM/high glucose supplemented with 2% HS (horse serum) and 1% penicillin). The differentiation medium was replaced every 2 days, and the treatment was performed for 6 days. Then, the differentiation-induced C2C12 myotubes were treated with HyClone™ supplemented with 1% penicillin for 24 hours and then subjected to the following experiment.
Dexamethasone induces muscle atrophy by inhibiting muscle synthesis and inducing protein degradation. […]
After treating the control groups and test groups for 48 hours in Example 2-2, the cells were imaged using the automated cell imaging system JuLi™ Stage and the thickness of the imaged cells was measured using the cell processing program Image J, with 50 cells per group.

MuRF-1 = test: Western blotting of MuRF-1 in C2C12 myotubes
Description: (§1) Dexamethasone induces muscle atrophy by inhibiting muscle synthesis and inducing protein degradation. The effect of preventing and improving muscle atrophy of the lycii radicis cortex extract was investigated by inducing muscle atrophy by treating the differentiation-induced C2C12 cells of Example 2-1 with dexamethasone and then treating the muscle atrophy-induced cells with the lycii radicis cortex extract. Detailed experimental conditions are as follows.
(§2) (1) Control: The differentiated C2C12 cells were treated only with DMEM/high glucose supplemented with 1% penicillin for 48 hours.
(§3) (2) Negative control: The C2C12 cells were treated with DMEM/high glucose supplemented with 1% penicillin and 1 μM dexamethasone for 48 hours.
(§4) (3) Control+lycii radicis cortex extract: The cells were treated with 30 μg/mL of the lycii radicis cortex extract for 48 hours under the same condition as the control of (1).
(§5) (4) Negative control+lycii radicis cortex extract: The cells were treated with 30 μg/mL of the lycii radicis cortex extract for 48 hours under the same condition as the negative control of (2). […]

atrogin-1/MAFbx = test: Western blotting of atrogin-1/MAFbx in C2C12 myotubes
Description: as §1, §2, §3, §4, §5

Structure (SMILES): C[C@@H]1C[C@H]2[C@@H]3CCC4=CC(=O)C=C[C@]4(C)[C@@]3(F)[C@@H](O)C[C@]2(C)[C@@]1(O)C(=O)CO [dexamethasone]
- Average thickness (μm) of 50 cells (C2C12 myotubes; 48 hours, C2C12 myotubes): 7.5933 μm
- decrease in thickness as compared to the control group (C2C12 myotubes; p<0.005): 30.54%
- increase of activity of MuRF-1 as compared to the control group (MuRF-1): 3.513 fold
- MuRF-1 vs. GAPDH (MuRF-1; 48 hours, Control = 100): 351.2904
- increase of activity of atrogin-1/MAFbx as compared to the control group (atrogin-1/MAFbx): 3.404 fold
- Atrogin-1/MAFbx vs. GAPDH (atrogin-1/MAFbx; 48 hours, Control = 100): 340.3945
